{"source": "patent US20240408085A1", "about": "“COMPOUND FOR DEGRADATION OF BCL-2 FAMILY PROTEINS AND MEDICAL APPLICATION THEREOF” (XIZANG HAISCO PHARMACEUTICAL CO., LTD., priority 2021, published 2024)"}
{"system": "MOLT-4 cells", "assay": "Cell proliferation activity in MOLT-4 cells (72 h, cell viability luminescence)", "type": "cell-based, human", "details": "Homo sapiens, read-out: IC50 for the inhibition of MOLT-4 cell proliferation", "experimental": "MOLT-4 cells are acute lymphoblastic leukemia cell lines in humans. The cells were purchased from ATCC. Culture conditions: RPMI-1640+10% FBS+1% penicillin-streptomycin solution. The cells were cultured in a 37° C., 5% CO2 incubator. The cells were plated in a 96-well plate, with 5×10^3 cells/well. After plating, compounds at different concentrations were added and cultured in a 37° C., 5% CO2 incubator for 72 h. After the completion of culture, a reagent (Promega, G7573) for detecting the cell viability was added. The mixture was uniformly mixed for 2 minutes and then incubated at room temperature for 10 minutes. The luminescence signal was detected with a multimode plate reader (BMG, PHERAstar FSX). The luminescence readings were processed using GraphPad Prism 8.0 software and the IC50 values of the compounds for the inhibition of cell proliferation and the maximum inhibition rate were calculated according to formula (2) and formula (3), respectively, wherein Tadministration denotes the cell signal readings obtained after incubation with the compounds for 72 h, and Tvehicle denotes the cell signal readings obtained after incubation with the vehicle control for 72 h.\nCalculation of Max inhibition %: after the processing according to formula (2), the inhibition rate of the compounds at the highest concentration was calculated.", "units": {"IC50": "nM"}}
{"smiles": "Cc1ncsc1-c1ccc([C@H](C)NC(=O)[C@@H]2C[C@@H](O)CN2C(=O)[C@@H](NC(=O)CCCCCCC(=O)N2CCN(CC[C@H](CSc3ccccc3)Nc3ccc(S(=O)(=O)NC(=O)c4ccc(N5CCN(CC6=C(c7ccc(Cl)cc7F)CCCCC6)CC5)cc4)cc3S(=O)(=O)C(F)(F)F)CC2)C(C)(C)C)cc1", "note": "[Compound 36, (2S,4R)-1-((S)-2-(8-(4-((R)-3-((4-(N-(4-(4-((2-(4-chloro-2-fluorophenyl)cyclohept-1-en-1-yl)methyl)piperazin-1-yl)benzoyl)sulfamoyl)-2-((trifluoromethyl)sulfonyl)phenyl)amino)-4-(phenylthio)butyl)piperazin-1-yl)-8-oxooctanamido)-3,3-dimethylbutanoyl)-4-hydroxy-N—((S)-1-(4-(4-methylthiazol-5-yl)phenyl)ethyl)pyrrolidine-2-carboxamide]", "IC50": "< 500"}
{"smiles": "Cc1ncsc1-c1ccc([C@H](C)NC(=O)[C@@H]2C[C@@H](O)CN2C(=O)[C@@H](NC(=O)CCCCCC(=O)N2CCN(CC[C@H](CSc3ccccc3)Nc3ccc(S(=O)(=O)NC(=O)c4ccc(N5CCN(CC6=C(c7ccc(Cl)cc7F)CCC7(CC7)C6)CC5)cc4)cc3S(=O)(=O)C(F)(F)F)CC2)C(C)(C)C)cc1", "note": "[Compound 31, (2S,4R)-1-((S)-2-(7-(4-((R)-3-((4-(N-(4-(4-((6-(4-chloro-2-fluorophenyl)spiro[2.5]oct-5-en-5-yl)methyl)piperazin-1-yl)benzoyl)sulfamoyl)-2-((trifluoromethyl)sulfonyl)phenyl)amino)-4-(phenylthio)butyl)piperazin-1-yl)-7-oxoheptanamido)-3,3-dimethylbutanoyl)-4-hydroxy-N—((S)-1-(4-(4-methylthiazol-5-yl)phenyl)ethyl)pyrrolidine-2-carboxamide]", "IC50": "< 500"}
{"smiles": "Cc1ncsc1-c1ccc([C@H](C)NC(=O)[C@@H]2C[C@@H](O)CN2C(=O)[C@@H](NC(=O)CCCCCC(=O)N2C[C@@H]3C[C@H]2CN3CC[C@H](CSc2ccccc2)Nc2ccc(S(=O)(=O)NC(=O)c3ccc(N4CCN(CC5=C(c6ccc(Cl)cc6)CCCCC5)CC4)cc3)cc2S(=O)(=O)C(F)(F)F)C(C)(C)C)cc1", "note": "[Compound 33, (2S,4R)-1-((S)-2-(7-((1S,4S)-5-((R)-3-((4-(N-(4-(4-((2-(4-chlorophenyl)cyclohept-1-en-1-yl)methyl)piperazin-1-yl)benzoyl)sulfamoyl)-2-((trifluoromethyl)sulfonyl)phenyl)amino)-4-(phenylthio)butyl)-2,5-diazabicyclo[2.2.1]heptan-2-yl)-7-oxoheptanamido)-3,3-dimethylbutanoyl)-4-hydroxy-N—((S)-1-(4-(4-methylthiazol-5-yl)phenyl)ethyl)pyrrolidine-2-carboxamide]", "IC50": "< 500"}
{"smiles": "Cc1ncsc1-c1ccc([C@H](C)NC(=O)[C@@H]2C[C@@H](O)CN2C(=O)[C@@H](NC(=O)CCCCCC(=O)N2CCC3(CC2)CN(CC[C@H](CSc2ccccc2)Nc2ccc(S(=O)(=O)NC(=O)c4ccc(N5CCN(CC6=C(c7ccc(Cl)cc7)CCC(C)(C)C6)CC5)cc4)cc2S(=O)(=O)C(F)(F)F)C3)C(C)(C)C)cc1", "note": "[Trifluoroacetate of compound 9, (2S,4R)-1-((S)-2-(7-(2-((R)-3-((4-(N-(4-(4-((4′-chloro-4,4-dimethyl-3,4,5,6-tetrahydro-[1,1′-biphenyl]-2-yl)methyl)piperazin-1-yl)benzoyl)sulfamoyl)-2-((trifluoromethyl)sulfonyl)phenyl)amino)-4-(phenylthio)butyl)-2,7-diazaspiro[3.5]nonan-7-yl)-7-oxoheptanamido)-3,3-dimethylbutanoyl)-4-hydroxy-N—((S)-1-(4-(4-methylthiazol-5-yl)phenyl)ethyl)pyrrolidine-2-carboxamide]", "IC50": "< 500"}
{"smiles": "Cc1ncsc1-c1ccc([C@H](C)NC(=O)[C@@H]2C[C@@H](O)CN2C(=O)[C@@H](NC(=O)CCCCCC(=O)N2C[C@@H]3C[C@H]2CN3CC[C@H](CSc2ccccc2)Nc2ccc(S(=O)(=O)NC(=O)c3ccc(N4CCN(CC5=C(c6ccc(Cl)cc6)CCC(C)(C)C5)CC4)cc3)cc2S(=O)(=O)C(F)(F)F)C(C)(C)C)cc1", "note": "[Compound 13, (2S,4R)-1-((S)-2-(7-((1S,4S)-5-((R)-3-((4-(N-(4-(4-((4′-chloro-4,4-dimethyl-3,4,5,6-tetrahydro-[1,1′-biphenyl]-2-yl)methyl)piperazin-1-yl)benzoyl)sulfamoyl)-2-((trifluoromethyl)sulfonyl)phenyl)amino)-4-(phenylthio)butyl)-2,5-diazabicyclo[2.2.1]heptan-2-yl)-7-oxoheptanamido)-3,3-dimethylbutanoyl)-4-hydroxy-N—((S)-1-(4-(4-methylthiazol-5-yl)phenyl)ethyl)pyrrolidine-2-carboxamide]", "IC50": "< 500"}
{"smiles": "Cc1ncsc1-c1ccc([C@H](C)NC(=O)[C@@H]2C[C@@H](O)CN2C(=O)[C@@H](NC(=O)CCCCCCC(=O)N2C[C@@H]3C[C@H]2CN3CC[C@H](CSc2ccccc2)Nc2ccc(S(=O)(=O)NC(=O)c3ccc(N4CCN(CC5=C(c6ccc(Cl)cc6)CCCCC5)CC4)cc3)cc2S(=O)(=O)C(F)(F)F)C(C)(C)C)cc1", "note": "[Compound 34, (2S,4R)-1-((S)-2-(8-((1S,4S)-5-((R)-3-((4-(N-(4-(4-((2-(4-chlorophenyl)cyclohept-1-en-1-yl)methyl)piperazin-1-yl)benzoyl)sulfamoyl)-2-((trifluoromethyl)sulfonyl)phenyl)amino)-4-(phenylthio)butyl)-2,5-diazabicyclo[2.2.1]heptan-2-yl)-8-oxooctanamido)-3,3-dimethylbutanoyl)-4-hydroxy-N—((S)-1-(4-(4-methylthiazol-5-yl)phenyl)ethyl)pyrrolidine-2-carboxamide]", "IC50": "< 500"}
{"smiles": "Cc1ncsc1-c1ccc([C@H](C)NC(=O)[C@@H]2C[C@@H](O)CN2C(=O)[C@@H](NC(=O)CCCCCC(=O)N2C[C@@H]3C[C@H]2CN3CC[C@H](CSc2ccccc2)Nc2ccc(S(=O)(=O)NC(=O)c3ccc(N4CCN(CC5=C(c6ccc(Cl)cc6F)CCC(C)(C)C5)CC4)cc3)cc2S(=O)(=O)C(F)(F)F)C(C)(C)C)cc1", "note": "[Compound 20, (2S,4R)-1-((S)-2-(7-((1S,4S)-5-((R)-3-((4-(N-(4-(4-((4′-chloro-2′-fluoro-4,4-dimethyl-3,4,5,6-tetrahydro-[1,1′-biphenyl]-2-yl)methyl)piperazin-1-yl)benzoyl)sulfamoyl)-2-((trifluoromethyl)sulfonyl)phenyl)amino)-4-(phenylthio)butyl)-2,5-diazabicyclo[2.2.1]heptan-2-yl)-7-oxoheptanamido)-3,3-dimethylbutanoyl)-4-hydroxy-N—((S)-1-(4-(4-methylthiazol-5-yl)phenyl)ethyl)pyrrolidine-2-carboxamide]", "IC50": "< 500"}
{"smiles": "Cc1ncsc1-c1ccc([C@H](C)NC(=O)[C@@H]2C[C@@H](O)CN2C(=O)[C@@H](NC(=O)CCCCCC(=O)N2CCN(CC[C@H](CSc3ccccc3)Nc3ccc(S(=O)(=O)NC(=O)c4ccc(N5CCN(CC6=C(c7ccc(Cl)cc7)CCOC6)CC5)cc4)cc3S(=O)(=O)C(F)(F)F)CC2)C(C)(C)C)cc1", "note": "[Compound 5, (2S,4R)-1-((S)-2-(7-(4-((R)-3-((4-(N-(4-(4-((4-(4-chlorophenyl)-5,6-dihydro-2H-pyran-3-yl)methyl)piperazin-1-yl)benzoyl)sulfamoyl)-2-((trifluoromethyl)sulfonyl)phenyl)amino)-4-(phenylthio)butyl)piperazin-1-yl)-7-oxoheptanamido)-3,3-dimethylbutanoyl)-4-hydroxy-N—((S)-1-(4-(4-methylthiazol-5-yl)phenyl)ethyl)pyrrolidine-2-carboxamide]", "IC50": "< 500"}
{"smiles": "Cc1ncsc1-c1ccc([C@H](C)NC(=O)[C@@H]2C[C@@H](O)CN2C(=O)[C@@H](NC(=O)CCCCCCC(=O)N2C[C@H]3CN(CC[C@H](CSc4ccccc4)Nc4ccc(S(=O)(=O)NC(=O)c5ccc(N6CCN(CC7=C(c8ccc(Cl)cc8F)CCC8(CC8)C7)CC6)cc5)cc4S(=O)(=O)C(F)(F)F)C[C@H]3C2)C(C)(C)C)cc1", "note": "[Compound 23, cis-(2S,4R)-1-((S)-2-(8-(5-((R)-3-((4-(N-(4-(4-((6-(4-chloro-2-fluorophenyl)spiro[2.5]oct-5-en-5-yl)methyl)piperazin-1-yl)benzoyl)sulfamoyl)-2-((trifluoromethyl)sulfonyl)phenyl)amino)-4-(phenylthio)butyl)hexahydropyrrolo[3,4-c]pyrrol-2(1H)-yl)-8-oxooctanamido)-3,3-dimethylbutanoyl)-4-hydroxy-N—((S)-1-(4-(4-methylthiazol-5-yl)phenyl)ethyl)pyrrolidine-2-carboxamide]", "IC50": "< 500"}
{"smiles": "Cc1ncsc1-c1ccc([C@H](C)NC(=O)[C@@H]2C[C@@H](O)CN2C(=O)[C@@H](NC(=O)CCCCCCC(=O)N2C[C@H]3CN(CC[C@H](CSc4ccccc4)Nc4ccc(S(=O)(=O)NC(=O)c5ccc(N6CCN(CC7=C(c8ccc(Cl)cc8F)CCCCC7)CC6)cc5)cc4S(=O)(=O)C(F)(F)F)C[C@H]3C2)C(C)(C)C)cc1", "note": "[Compound 40, cis-(2S,4R)-1-((S)-2-(8-(5-((R)-3-((4-(N-(4-(4-((2-(4-chloro-2-fluorophenyl)cyclohept-1-en-1-yl)methyl)piperazin-1-yl)benzoyl)sulfamoyl)-2-((trifluoromethyl)sulfonyl)phenyl)amino)-4-(phenylthio)butyl)hexahydropyrrolo[3,4-c]pyrrol-2(1H)-yl)-8-oxooctanamido)-3,3-dimethylbutanoyl)-4-hydroxy-N—((S)-1-(4-(4-methylthiazol-5-yl)phenyl)ethyl)pyrrolidine-2-carboxamide]", "IC50": "< 500"}
